Assay results: patent US9695175B2, “Highly selective c-Met inhibitors as anticancer agents” (Crown Bioscience Inc. (Taiwan), priority 2012, dated 2017)

Legend:
[1] = biological target: c-Met protein in S114 cells (Homo sapiens (Human), UniProt P08581); experiment: S114 cell-based ELISA, phosphorylation of c-Met protein; conditions: 30 min compound incubation, phospho-c-Met ELISA
Experimental: Cell-Based ELISA [Method] Use ELISA to measure the phosphorylation of c-Met protein in […] cells [Instrument] ENVISION plate reader of PerKinElmer […] [Procedure] […] cells are cultured in DMEM medium (containing 10% FBS). When cells reach 80% confluency, they are collected by trypsinization and centrifugation at 800 rpm for 5 min. The cells are re-suspended in DMEM and adjusted to a density of 500,000 cells/mL. A 96-well plate is pretreated with a solution of Firbronectin in PBS (5 μg/mL) at 100 μL per well for 2 hr. The cell suspension is split into the 96-well culture plate at 100 uL per well and incubated (37° C., 5% CO2) overnight. The capture antibody is diluted with 1/2 Tris-ammonium bicarbonate buffer (1:1000) and transferred into a 96-well absorption plate (70 μL per well) at 4° C. overnight. The solution is discarded and the plate is washed with blocking buffer, followed by adding blocking buffer (150 μL per well), and kept at room temperature for 1 hr. The medium in the 96-well culture plate is discarded and the plate is washed with DMEM (without FBS). Then 80 μL of DMEM (without FBS) and 20 μL of test compound solution at various concentrations in DMEM (without FBS) are added. The culture plate is kept in a culture incubator for 30 min (37° C., 5% CO2). The cell culture medium is discarded and the culture plate is washed with PBS, followed by adding lysis buffer (50 μL per well) and incubated at 4° C. for 20 min. The solution in the absorption plate is discarded and the plate is washed with binding buffer. To each well of the absorption plate is added binding buffer (50 μL) and lysate (40 μL) from the above culture plate; then the plate is incubated at room temperature for 2 hours. The culture medium is discarded and the plate is washed twice with binding buffer, followed by adding a solution of 1st antibody (diluted with binding buffer 1:1000, 100 μL per well) and incubated at 37° C. for 1 hr. The solution is discarded and the plate is washed twice with binding buffer. Then a solution of 2nd antibody is added (100 μL per well) and incubated at 37° C. for another hour. The medium is discarded and the plate is washed twice with binding buffer and once with PBS. To each well, 100 μL of A.B.T.S solution is added and incubated at 37° C. for 30 min. Then OD405 is analyzed on an ENVISION plate reader. This assay has a Minimum Significant Ratio (MSA) of 2-3. [Samples] All exemplified compounds and Crizotinib as the positive control [Data Analysis] Background (no cell lysate): 0.084 • Max (no test compound): 0.517 [formula] [Software] Use CBIS data analysis software to calculate IC50 values

[2] = biological target: c-Met kinase (1038-1346AA) (Homo sapiens (Human), UniProt P08581); experiment: c-Met in vitro kinase assay (Lance Ultra ULight-TK); format: biochemical; conditions: c-Met kinase 12.5 nM, ATP 2.5 uM, 30° C.; read-out: c-Met Enzyme IC50
Chain of c-Met kinase (1038-1346AA) (P08581 1038-1346): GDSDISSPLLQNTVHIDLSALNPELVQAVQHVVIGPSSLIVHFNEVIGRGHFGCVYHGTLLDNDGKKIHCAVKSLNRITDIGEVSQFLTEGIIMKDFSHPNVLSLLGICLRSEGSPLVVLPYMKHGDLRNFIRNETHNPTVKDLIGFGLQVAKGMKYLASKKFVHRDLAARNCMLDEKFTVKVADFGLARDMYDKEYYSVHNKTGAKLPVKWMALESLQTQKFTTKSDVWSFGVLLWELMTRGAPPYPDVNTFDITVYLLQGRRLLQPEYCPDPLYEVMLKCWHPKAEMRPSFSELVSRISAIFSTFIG
Experimental: c-Met In Vitro Kinase Assay [Method] Use Lance@Ultra Ulight™-TK test kits from PerKinElmer to evaluate the inhibition of c-Met kinase by the compounds [Instrument] ENVISION plate reader of PerKinElmer […] Then ATP (final concentration 2.5 uM) and kinase substrate (final concentration 50 nM) are added. […] After 1 hr, the plate is read at 615 nm and 665 nm. The ratio of […] at 665 nm and 615 nm is calculated and used for the data analysis as follows. This assay has a Minimum Significant Ratio (MSA) of 2-3. [Samples] All exampled compounds and Crizotinib as the positive control [Data Analysis] Background—the ratio of 665 nm/615 nm (no enzyme):0.003285 • Max—the ratio of 665 nm/615 nm (no test compound):0.075356 [formula] [Software] Use CBIS data analysis software to calculate IC50 values

Chain of c-Met protein in S114 cells (P08581 25-1390): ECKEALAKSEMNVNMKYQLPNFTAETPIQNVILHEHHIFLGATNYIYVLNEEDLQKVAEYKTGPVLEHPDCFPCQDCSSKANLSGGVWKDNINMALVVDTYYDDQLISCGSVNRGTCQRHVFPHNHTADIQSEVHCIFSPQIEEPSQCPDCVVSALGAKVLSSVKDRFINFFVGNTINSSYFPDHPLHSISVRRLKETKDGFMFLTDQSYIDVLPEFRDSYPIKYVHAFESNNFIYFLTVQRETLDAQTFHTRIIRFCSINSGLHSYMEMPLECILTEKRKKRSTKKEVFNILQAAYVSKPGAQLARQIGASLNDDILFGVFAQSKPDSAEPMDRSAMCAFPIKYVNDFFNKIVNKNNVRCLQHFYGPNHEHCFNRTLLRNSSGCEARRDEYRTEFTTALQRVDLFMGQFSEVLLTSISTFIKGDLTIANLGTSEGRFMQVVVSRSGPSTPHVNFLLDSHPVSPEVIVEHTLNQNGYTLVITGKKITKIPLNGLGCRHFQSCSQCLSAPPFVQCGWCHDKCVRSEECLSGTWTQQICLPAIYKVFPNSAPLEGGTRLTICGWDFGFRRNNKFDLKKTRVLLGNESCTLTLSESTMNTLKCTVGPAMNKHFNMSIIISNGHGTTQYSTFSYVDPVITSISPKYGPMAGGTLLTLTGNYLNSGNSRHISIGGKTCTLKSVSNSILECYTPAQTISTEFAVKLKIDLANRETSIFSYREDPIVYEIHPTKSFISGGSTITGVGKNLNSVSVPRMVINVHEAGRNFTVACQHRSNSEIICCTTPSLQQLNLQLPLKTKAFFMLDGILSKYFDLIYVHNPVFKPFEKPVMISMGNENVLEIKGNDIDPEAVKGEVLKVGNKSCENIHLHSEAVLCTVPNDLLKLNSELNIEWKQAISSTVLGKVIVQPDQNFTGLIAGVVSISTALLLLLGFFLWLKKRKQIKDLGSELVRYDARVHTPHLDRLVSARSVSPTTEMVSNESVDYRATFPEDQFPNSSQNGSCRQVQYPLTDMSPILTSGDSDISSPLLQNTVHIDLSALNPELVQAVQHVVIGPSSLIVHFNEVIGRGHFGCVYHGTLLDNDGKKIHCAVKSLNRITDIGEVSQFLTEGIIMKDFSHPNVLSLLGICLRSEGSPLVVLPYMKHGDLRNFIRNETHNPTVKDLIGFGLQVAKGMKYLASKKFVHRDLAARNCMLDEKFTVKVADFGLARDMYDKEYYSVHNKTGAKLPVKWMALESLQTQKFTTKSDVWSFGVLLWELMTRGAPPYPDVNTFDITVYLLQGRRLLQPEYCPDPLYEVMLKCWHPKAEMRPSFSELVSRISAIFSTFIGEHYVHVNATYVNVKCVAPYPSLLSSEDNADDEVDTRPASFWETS

SMILES | IC50 [1] [nM] | IC50 [2] [nM]
Cn1cc2cc(C(F)(F)c3nnc4ccc(-c5cc(F)c6c(c5)CNC6=O)nn34)c(F)cc2n1 [Example 43] | 35.2 | 23.3
Cn1cc2cc(C(F)(F)c3nnc4ccc(-c5cnn(C6CC6)c5)cn34)c(F)cc2n1 [Example 46] | 139 | 159
Cn1cc2c(F)c(C(F)(F)c3nnc4ccc(-c5cnn(CC6COCO6)c5)nn34)ccc2n1 (stereo not drawn) [Example 16] | 179 | 247
